Laboratory results reported in patent US20040018941A1, “Fused-benzene derivatives of thiouracil, herbicidal and desiccant compositions contaning them” (ISHIHARA SANGYO KAISHA, LTD., priority 2002, published 2004).

Key:
Type in all cases: in vivo
Details in all cases: rating 0-100 (0 no damage, 100 complete death), 14 days after application
[1] = tested on: redroot pigweed (Amaranthus retroflexus, AMARE); assay: Pre-emerge herbicidal activity, greenhouse screen, AMARE
Source text: (§1) A standard greenhouse herbicide activity screening system was used to evaluate the herbicidal efficacy and crop safety of these test compounds. Seven broadleaf weed species including redroot pigweed (Amaranthus retroflexus, AMARE), velvetleaf (Abutilon theophrasti, ABUTH), sicklepod (Cassia obtusifolia, CASOB), ivyleaf morningglory (Ipomoea hederacea, IPOHE), lambsquarters (Chenopodium album, CHEAL), common ragweed (Ambrosia artemisiifolia L., AMBEL), and cocklebur (Xanthium strumarium, XANST) were used as test species. Four grass weed species including green foxtail (Setaria viridis, SETVI), barnyardgrass (Echinochloa crus-galli, ECHCG), johnsongrass (Sorghum halepense, SORHA), and large crabgrass (Digitaria sanguinalis, DIGSA) were also used. In addition, three crop species, field corn (Zea mays L., var. Dekalb 527, CORN), soybean (Glycine max L., var. Pella 86, SOY), and upland rice (Oryza sp., var. Tebonnet, RICE) were included.
(§2) All plants were grown in 10 cm square plastic pots which were filled with a sandy loam soil mix. For pre-emerge tests, seeds were planted one day prior to application of the test compounds. For post-emerge tests, seeds were planted 8-21 days prior to the test to allow emergence and good foliage development prior to application of the test substances. At the time of the post-emerge application, plants of all species were usually at the 2-3 leaf stage of development.
(§3) All test compounds were dissolved in acetone and applied to the test units in a volume of 187 l/ha. Test materials were applied at rates ranging from 15 g ai/ha to 1000 g ai/ha using a track sprayer equipped with a TJ8001 E even flow flat fan spray nozzle. Plants were arranged on a shelf so that the top of the canopy (post-emerge) or top of the soil surface (pre-emerge) was 40-45 cm below the nozzle. Pressurized air was used to force the test solution through the nozzle as it was mechanically advanced over the top of all test plants/pots. This application simulates a typical commercial field herbicide application.
(§4) In the post-emerge test, a commercial non-ionic surfactant was also included (0.25% v/v) to enhance wetting of the leaf surfaces of target plants. Immediately after application, test units of the pre-emerge applications were watered at the soil surface to incorporate the test materials.
(§5) At 14 days after application of the test materials, phytotoxicity ratings were recorded. A rating scale of 0-100 was used as previously described in Research Methods in Weed Science, 2nd edition, B. Truelove, Ed., Southern Weed Science Society, Auburn University, Auburn, Ala., 1977. Briefly, “0” corresponds to no damage and “100” corresponds to complete death of all plants in the test unit. This scale was used both to determine efficacy against weed species and damage to crop species. Herbicide activity data for various compounds of this invention, which are shown by compound No. in Tables 1-7, are shown in Tables 8 and 9.

[2] = tested on: velvetleaf (Abutilon theophrasti, ABUTH); assay: Pre-emerge herbicidal activity, greenhouse screen, ABUTH
Source text: as §1, §2, §3, §4, §5

[3] = tested on: sicklepod (Cassia obtusifolia, CASOB); assay: Pre-emerge herbicidal activity, greenhouse screen, CASOB
Source text: as §1, §2, §3, §4, §5

[4] = tested on: ivyleaf morningglory (Ipomoea hederacea, IPOHE); assay: Pre-emerge herbicidal activity, greenhouse screen, IPOHE
Source text: as §1, §2, §3, §4, §5

[5] = tested on: lambsquarters (Chenopodium album, CHEAL); assay: Pre-emerge herbicidal activity, greenhouse screen, CHEAL
Source text: as §1, §2, §3, §4, §5

[6] = tested on: common ragweed (Ambrosia artemisiifolia L., AMBEL); assay: Pre-emerge herbicidal activity, greenhouse screen, AMBEL
Source text: as §1, §2, §3, §4, §5

[7] = tested on: green foxtail (Setaria viridis, SETVI); assay: Pre-emerge herbicidal activity, greenhouse screen, SETVI
Source text: as §1, §2, §3, §4, §5

[8] = tested on: barnyardgrass (Echinochloa crus-galli, ECHCG); assay: Pre-emerge herbicidal activity, greenhouse screen, ECHCG
Source text: as §1, §2, §3, §4, §5

[9] = tested on: johnsongrass (Sorghum halepense, SORHA); assay: Pre-emerge herbicidal activity, greenhouse screen, SORHA
Source text: as §1, §2, §3, §4, §5

[10] = tested on: large crabgrass (Digitaria sanguinalis, DIGSA); assay: Pre-emerge herbicidal activity, greenhouse screen, DIGSA
Source text: as §1, §2, §3, §4, §5

[11] = tested on: redroot pigweed (Amaranthus retroflexus, AMARE); assay: Post-emerge herbicidal activity, greenhouse screen, AMARE
Source text: as §1, §2, §3, §4, §5

[12] = tested on: velvetleaf (Abutilon theophrasti, ABUTH); assay: Post-emerge herbicidal activity, greenhouse screen, ABUTH
Source text: as §1, §2, §3, §4, §5

[13] = tested on: sicklepod (Cassia obtusifolia, CASOB); assay: Post-emerge herbicidal activity, greenhouse screen, CASOB
Source text: as §1, §2, §3, §4, §5

[14] = tested on: ivyleaf morningglory (Ipomoea hederacea, IPOHE); assay: Post-emerge herbicidal activity, greenhouse screen, IPOHE
Source text: as §1, §2, §3, §4, §5

[15] = tested on: lambsquarters (Chenopodium album, CHEAL); assay: Post-emerge herbicidal activity, greenhouse screen, CHEAL
Source text: as §1, §2, §3, §4, §5

[16] = tested on: common ragweed (Ambrosia artemisiifolia L., AMBEL); assay: Post-emerge herbicidal activity, greenhouse screen, AMBEL
Source text: as §1, §2, §3, §4, §5

[17] = tested on: green foxtail (Setaria viridis, SETVI); assay: Post-emerge herbicidal activity, greenhouse screen, SETVI
Source text: as §1, §2, §3, §4, §5

[18] = tested on: barnyardgrass (Echinochloa crus-galli, ECHCG); assay: Post-emerge herbicidal activity, greenhouse screen, ECHCG
Source text: as §1, §2, §3, §4, §5

[19] = tested on: johnsongrass (Sorghum halepense, SORHA); assay: Post-emerge herbicidal activity, greenhouse screen, SORHA
Source text: as §1, §2, §3, §4, §5

[20] = tested on: large crabgrass (Digitaria sanguinalis, DIGSA); assay: Post-emerge herbicidal activity, greenhouse screen, DIGSA
Source text: as §1, §2, §3, §4, §5

Cn1c(C(F)(F)F)cc(=O)n(-c2c(F)cc(Cl)c3nc(C(C)(C)C)oc23)c1=S [Compound 1-3, 3-[2-t-butyl-4-chloro-6-fluoro-1,3-benzoxazol-7-yl]-1-methyl-2-thioxo-6-(trifluoromethyl)-2,3-dihydropyrimidin-4(1H)-one]
85: Post-emerge Herbicidal Activity SORHA ([19]; 250 g ai/ha)
99: Pre-emerge Herbicidal Activity AMBEL ([6]; 63 g ai/ha) | Post-emerge Herbicidal Activity AMBEL ([16]; 63 g ai/ha) | Post-emerge Herbicidal Activity SETVI ([17]; 63 g ai/ha)
100: Pre-emerge Herbicidal Activity AMARE ([1]; 63 g ai/ha) | Pre-emerge Herbicidal Activity AMARE ([1]; 250 g ai/ha) | Pre-emerge Herbicidal Activity ABUTH ([2]; 63 g ai/ha) | Pre-emerge Herbicidal Activity ABUTH ([2]; 250 g ai/ha) | Pre-emerge Herbicidal Activity CASOB ([3]; 250 g ai/ha) | Pre-emerge Herbicidal Activity IPOHE ([4]; 250 g ai/ha) | Pre-emerge Herbicidal Activity CHEAL ([5]; 63 g ai/ha) | Pre-emerge Herbicidal Activity CHEAL ([5]; 250 g ai/ha) | Pre-emerge Herbicidal Activity AMBEL ([6]; 250 g ai/ha) | Pre-emerge Herbicidal Activity SETVI ([7]; 63 g ai/ha) | Pre-emerge Herbicidal Activity SETVI ([7]; 250 g ai/ha) | Pre-emerge Herbicidal Activity ECHCG ([8]; 63 g ai/ha) | Pre-emerge Herbicidal Activity ECHCG ([8]; 250 g ai/ha) | Pre-emerge Herbicidal Activity SORHA ([9]; 63 g ai/ha) | Pre-emerge Herbicidal Activity SORHA ([9]; 250 g ai/ha) | Pre-emerge Herbicidal Activity DIGSA ([10]; 63 g ai/ha) | Pre-emerge Herbicidal Activity DIGSA ([10]; 250 g ai/ha) | Post-emerge Herbicidal Activity AMARE ([11]; 63 g ai/ha) | Post-emerge Herbicidal Activity AMARE ([11]; 250 g ai/ha) | Post-emerge Herbicidal Activity ABUTH ([12]; 63 g ai/ha) | Post-emerge Herbicidal Activity ABUTH ([12]; 250 g ai/ha) | Post-emerge Herbicidal Activity CASOB ([13]; 250 g ai/ha) | Post-emerge Herbicidal Activity IPOHE ([14]; 63 g ai/ha) | Post-emerge Herbicidal Activity IPOHE ([14]; 250 g ai/ha) | Post-emerge Herbicidal Activity CHEAL ([15]; 63 g ai/ha) | Post-emerge Herbicidal Activity CHEAL ([15]; 250 g ai/ha) | Post-emerge Herbicidal Activity AMBEL ([16]; 250 g ai/ha) | Post-emerge Herbicidal Activity SETVI ([17]; 250 g ai/ha) | Post-emerge Herbicidal Activity ECHCG ([18]; 63 g ai/ha) | Post-emerge Herbicidal Activity ECHCG ([18]; 250 g ai/ha)
50: Post-emerge Herbicidal Activity DIGSA ([20]; 63 g ai/ha)
95: Pre-emerge Herbicidal Activity CASOB ([3]; 63 g ai/ha) | Pre-emerge Herbicidal Activity IPOHE ([4]; 63 g ai/ha)
65: Post-emerge Herbicidal Activity SORHA ([19]; 63 g ai/ha) | Post-emerge Herbicidal Activity DIGSA ([20]; 250 g ai/ha)
70: Post-emerge Herbicidal Activity CASOB ([13]; 63 g ai/ha)

Cc1cc2c(-n3c(=O)cc(C(F)(F)F)n(C)c3=S)c(F)cc(Cl)c2o1 [Compound 2-2, 3-(7-chloro-5-fluoro-2-methyl-1-benzofuran-4-yl)-1-methyl-2-thioxo-6-(trifluoromethyl)-2,3-dihydropyrimidin-4(1H)-one]
100: Pre-emerge Herbicidal Activity AMARE ([1]; 63 g ai/ha) | Pre-emerge Herbicidal Activity AMARE ([1]; 250 g ai/ha) | Pre-emerge Herbicidal Activity ABUTH ([2]; 63 g ai/ha) | Pre-emerge Herbicidal Activity ABUTH ([2]; 250 g ai/ha) | Pre-emerge Herbicidal Activity CASOB ([3]; 250 g ai/ha) | Pre-emerge Herbicidal Activity CHEAL ([5]; 63 g ai/ha) | Pre-emerge Herbicidal Activity CHEAL ([5]; 250 g ai/ha) | Pre-emerge Herbicidal Activity AMBEL ([6]; 63 g ai/ha) | Pre-emerge Herbicidal Activity AMBEL ([6]; 250 g ai/ha) | Pre-emerge Herbicidal Activity SETVI ([7]; 63 g ai/ha) | Pre-emerge Herbicidal Activity SETVI ([7]; 250 g ai/ha) | Pre-emerge Herbicidal Activity ECHCG ([8]; 250 g ai/ha) | Pre-emerge Herbicidal Activity SORHA ([9]; 63 g ai/ha) | Pre-emerge Herbicidal Activity SORHA ([9]; 250 g ai/ha) | Pre-emerge Herbicidal Activity DIGSA ([10]; 63 g ai/ha) | Pre-emerge Herbicidal Activity DIGSA ([10]; 250 g ai/ha) | Post-emerge Herbicidal Activity AMARE ([11]; 63 g ai/ha) | Post-emerge Herbicidal Activity AMARE ([11]; 250 g ai/ha) | Post-emerge Herbicidal Activity ABUTH ([12]; 63 g ai/ha) | Post-emerge Herbicidal Activity ABUTH ([12]; 250 g ai/ha) | Post-emerge Herbicidal Activity CASOB ([13]; 63 g ai/ha) | Post-emerge Herbicidal Activity CASOB ([13]; 250 g ai/ha) | Post-emerge Herbicidal Activity IPOHE ([14]; 63 g ai/ha) | Post-emerge Herbicidal Activity IPOHE ([14]; 250 g ai/ha) | Post-emerge Herbicidal Activity CHEAL ([15]; 63 g ai/ha) | Post-emerge Herbicidal Activity CHEAL ([15]; 250 g ai/ha) | Post-emerge Herbicidal Activity AMBEL ([16]; 63 g ai/ha) | Post-emerge Herbicidal Activity AMBEL ([16]; 250 g ai/ha) | Post-emerge Herbicidal Activity SETVI ([17]; 63 g ai/ha) | Post-emerge Herbicidal Activity SETVI ([17]; 250 g ai/ha) | Post-emerge Herbicidal Activity ECHCG ([18]; 63 g ai/ha) | Post-emerge Herbicidal Activity ECHCG ([18]; 250 g ai/ha) | Post-emerge Herbicidal Activity SORHA ([19]; 63 g ai/ha) | Post-emerge Herbicidal Activity SORHA ([19]; 250 g ai/ha) | Post-emerge Herbicidal Activity DIGSA ([20]; 250 g ai/ha)
99: Pre-emerge Herbicidal Activity CASOB ([3]; 63 g ai/ha) | Pre-emerge Herbicidal Activity IPOHE ([4]; 63 g ai/ha) | Pre-emerge Herbicidal Activity IPOHE ([4]; 250 g ai/ha) | Pre-emerge Herbicidal Activity ECHCG ([8]; 63 g ai/ha)
85: Post-emerge Herbicidal Activity DIGSA ([20]; 63 g ai/ha)
